Measured values taken from patent publication US12583858B2 (Genentech, Inc., priority 2015, dated 2026).
pEC50: −log10 of the molar value.

Target: T1, TDO2 (Homo sapiens, UniProt P48775)
T1 construct: decreased levels of NFK in SW48 cells (high TDO expressing cells)
Experiment: TDO2 cell assay (NFK GreenScreen, SW48 cells)
Type: cell-based
Conditions: SW48 cells (high TDO expressing), 200 uM tryptophan, 24 hours; Table 3; read-out: TDO2 Cell Fluor EC50

T1 sequence (P48775 whole entry): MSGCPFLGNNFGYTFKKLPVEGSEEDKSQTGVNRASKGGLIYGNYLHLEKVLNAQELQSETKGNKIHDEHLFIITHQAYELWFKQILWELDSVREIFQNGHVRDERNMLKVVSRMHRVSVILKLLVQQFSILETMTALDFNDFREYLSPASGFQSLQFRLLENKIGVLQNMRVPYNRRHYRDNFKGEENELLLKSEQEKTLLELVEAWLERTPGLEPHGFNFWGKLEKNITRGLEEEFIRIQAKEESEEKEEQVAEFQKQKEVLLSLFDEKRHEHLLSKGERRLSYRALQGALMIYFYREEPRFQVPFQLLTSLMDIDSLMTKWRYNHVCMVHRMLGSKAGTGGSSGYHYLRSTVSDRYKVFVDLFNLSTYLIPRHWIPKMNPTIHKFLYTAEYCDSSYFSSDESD

OC1CC2(CC2)C1C1c2ccccc2-c2cncn21 (single isomer, unassigned) [Example 72b]
pEC50: 6.19

OC1CC2(CC2)C1C1c2ccccc2-c2cncn21 (single isomer, unassigned) [Example 72c]
pEC50: 5.00

OC1CC2(CC2)C1C1c2ccccc2-c2cncn21 (single isomer, unassigned) [Example 72d]
pEC50: 5.05

OC1CC2(CC2)C1C1c2ccccc2-c2cncn21 (single isomer, unassigned) [Example 72e]
pEC50: 7.28

OC1CC2(CC2)C1C1c2ccccc2-c2cncn21 (single isomer, unassigned) [Example 72f]
pEC50: 4.96

OC1CC2(CC2)C1C1c2ccccc2-c2cncn21 (single isomer, unassigned) [Example 72g]
pEC50: 4.96

OC1CC2(CC2)C1C1c2ccccc2-c2cncn21 (single isomer, unassigned) [Example 72h]
pEC50: 4.74

OC1CCOCC1C1c2c(F)cccc2-c2cncn21 (single isomer, unassigned) [Example 73a]
pEC50: 5.19

OC1CCOCC1C1c2c(F)cccc2-c2cncn21 (single isomer, unassigned) [Example 73b]
pEC50: 5.66

OC1CCOCC1C1c2c(F)cccc2-c2cncn21 (single isomer, unassigned) [Example 73c]
pEC50: 6.47

OC1CCOCC1C1c2c(F)cccc2-c2cncn21 (single isomer, unassigned) [Example 73d]
pEC50: < 4.60

OC1COCCC1C1c2cc(F)ccc2-c2cncn21 (single isomer, unassigned) [Example 75-1a]
pEC50: 5.24

OC1COCCC1C1c2cc(F)ccc2-c2cncn21 (single isomer, unassigned) [Example 75-1b]
pEC50: < 4.60

OC1COCCC1C1c2cc(F)ccc2-c2cncn21 (single isomer, unassigned) [Example 75-1c]
pEC50: 6.96

OC1COCCC1C1c2cc(F)ccc2-c2cncn21 (single isomer, unassigned) [Example 75-1d]
pEC50: < 4.60

OC1CCOCC1C1c2cc(F)ccc2-c2cncn21 (single isomer, unassigned) [Example 75a]
pEC50: < 4.60

OC1CCOCC1C1c2cc(F)ccc2-c2cncn21 (single isomer, unassigned) [Example 75b]
pEC50: 5.92

OC1CCOCC1C1c2cc(F)ccc2-c2cncn21 (single isomer, unassigned) [Example 75c]
pEC50: 4.72

OC1CCOCC1C1c2cc(F)ccc2-c2cncn21 (single isomer, unassigned) [Example 75d]
pEC50: 6.28

CCS(=O)(=O)N1CCC2(CCC(C3c4ccccc4-c4cncn43)C2O)CC1 (single isomer, unassigned) [Example 76a]
pEC50: 5.02

CCS(=O)(=O)N1CCC2(CCC(C3c4ccccc4-c4cncn43)C2O)CC1 (single isomer, unassigned) [Example 76b]
pEC50: 4.82

CCS(=O)(=O)N1CCC2(CCC(C3c4ccccc4-c4cncn43)C2O)CC1 (single isomer, unassigned) [Example 76c]
pEC50: 7.15

CCS(=O)(=O)N1CCC2(CCC(C3c4ccccc4-c4cncn43)C2O)CC1 (single isomer, unassigned) [Example 76d]
pEC50: 4.82

CCS(=O)(=O)N1CCC2(CCC(C3c4ccccc4-c4cncn43)C2O)CC1 (single isomer, unassigned) [Example 76e]
pEC50: 6.60

O=S(=O)(C1CC1)N1CC[C@@H]([C@H]2c3ccccc3-c3cncn32)[C@H](O)C1 (single isomer, unassigned) [Example 77a]
pEC50: < 4.60

CS(=O)(=O)N1CCC(C2c3ccccc3-c3cncn32)C(O)C1 (single isomer, unassigned) [Example 79a]
pEC50: 5.09

CS(=O)(=O)N1CCC(C2c3ccccc3-c3cncn32)C(O)C1 (single isomer, unassigned) [Example 79b]
pEC50: 5.28

CC(C)S(=O)(=O)N1CC[C@@H]([C@H]2c3ccccc3-c3cncn32)[C@H](O)C1 (single isomer, unassigned) [Example 80a]
pEC50: < 4.60

CC(C)S(=O)(=O)N1CC[C@@H]([C@H]2c3ccccc3-c3cncn32)[C@H](O)C1 (single isomer, unassigned) [Example 80b]
pEC50: 6.85

O=S(=O)(C1CC1)N1CC[C@@H]([C@@H]2c3ccccc3-c3cncn32)[C@H](O)C1 (single isomer, unassigned) [Example 81a]
pEC50: 5.28

O=S(=O)(C1CC1)N1CC[C@@H]([C@@H]2c3ccccc3-c3cncn32)[C@H](O)C1 (single isomer, unassigned) [Example 81b]
pEC50: < 4.60

CC1(C)OC(C)(C)C(C2c3ccccc3-c3cncn32)C1O (single isomer, unassigned) [Example 84a]
pEC50: 4.85

CC1(C)OC(C)(C)C(C2c3ccccc3-c3cncn32)C1O (single isomer, unassigned) [Example 84b]
pEC50: 7.17

CC1(C)OC(C)(C)C(C2c3ccccc3-c3cncn32)C1O (single isomer, unassigned) [Example 84c]
pEC50: 4.89

CC1(C)OC(C)(C)C(C2c3ccccc3-c3cncn32)C1O (single isomer, unassigned) [Example 84d]
pEC50: 5.44

CC1(C)OC(C)(C)C(C2c3ccccc3-c3cncn32)C1O (single isomer, unassigned) [Example 84e]
pEC50: < 4.60

CC1(C)OC(C)(C)C(C2c3ccccc3-c3cncn32)C1O (single isomer, unassigned) [Example 84f]
pEC50: < 4.60

CC1(C)OCC(C2c3ccccc3-c3cncn32)C1O (single isomer, unassigned) [Example 85a]
pEC50: 4.62

CC1(C)OCC(C2c3ccccc3-c3cncn32)C1O (single isomer, unassigned) [Example 85b]
pEC50: 6.89

CC1(C)OCC(C2c3ccccc3-c3cncn32)C1O (single isomer, unassigned) [Example 85c]
pEC50: 4.96

CC1(C)OCC(C2c3ccccc3-c3cncn32)C1O (single isomer, unassigned) [Example 85d]
pEC50: 6.18

CC1(C)OCC(C2c3ccccc3-c3cncn32)C1O (single isomer, unassigned) [Example 85e]
pEC50: < 4.60

CC1(C)OCC(C2c3ccccc3-c3cncn32)C1O (single isomer, unassigned) [Example 85f]
pEC50: < 4.60

CC1(C)OCC(C2c3ccccc3-c3cncn32)C1O (single isomer, unassigned) [Example 85g]
pEC50: 6.85

CC1(C)OCC(C2c3ccccc3-c3cncn32)C1O (single isomer, unassigned) [Example 85h]
pEC50: 6.18

OC1CCCOCC1C1c2ccccc2-c2cncn21 (single isomer, unassigned) [Example 86a]
pEC50: 4.85

OC1CCCOCC1C1c2ccccc2-c2cncn21 (single isomer, unassigned) [Example 86b]
pEC50: 6.28

OC1CCCOCC1C1c2ccccc2-c2cncn21 (single isomer, unassigned) [Example 86c]
pEC50: < 4.60

OC1CCCOCC1C1c2ccccc2-c2cncn21 (single isomer, unassigned) [Example 86d]
pEC50: 6.85

OC1CCCOCC1C1c2ccccc2-c2cncn21 (single isomer, unassigned) [Example 86e]
pEC50: < 4.60

OC1CCCOCC1C1c2ccccc2-c2cncn21 (single isomer, unassigned) [Example 86f]
pEC50: 6.82
